Patent publication US5393742A, “Preparation for treating renal disease” (MECT Corporation, priority 1990, dated 1995)
Where two headings read alike, the source gives them in different places.

How the values were obtained:
[1] = system: Puromycin aminonucleoside (PAN) induced nephritis; assay type: in vivo, Male Sprague-Dawley (SD) rats; settings: for Kidney Moist Weight / Weight Gain Rate / Urinary Protein Content: 3 times a day; for Kidney Moist Weight / Weight Gain Rate: 14 days after PAN
Protocol: Effect on Puromycin aminonucleoside (PAN) induced nephritis, i.e. PAN induced nephrosis or nephrotic syndrome:
Male Sprague-Dawley (SD) rats weighing 160-180 g were used.
As the nephritis, i.e. nephrosis or nephrotic syndrome, causing substance, PAN (made by Sigma Co., Ltd.) was used. As the test compound, sodium N-acetylneuraminate (made by MECT Corporation) was used.
PAN was intraperitoneally administered in an amount of 80 mg per 1 kg of body weight to rats to cause nephritis, i.e. nephrosis or nephrotic syndrome. Then, the test compound (Groups I, II or III) or physiological saline solution (Group IV) was intraperitoneally administered 3 times a day (morning, noon and evening) for 14 consecutive days immediately after treatment with PAN as follows. As a positive control, methylprednisolone was subcutaneously administered to rats of Group V once a day (noon) for 14 consecutive days immediately after treatment with PAN. Moreover, 3, 6, 9 and 13 days after treatment with PAN, 5 ml water was loaded, and the urine was collected for 6 hours. Fourteen days after treatment with PAN, autopsies were made, the kidneys were extirpated and their moist weights were measured.
Group I: 0.1 mg Sodium N-acetylneuraminate per 1 kg of body weight was administered.
Group II: 0.5 mg Sodium N-acetylneuraminate per 1 kg of body weight was administered.
Group III: 1.0 mg Sodium N-acetylneuraminate per 1 kg of body weight was administered.
Group IV: 2.5 ml Physiological saline solution per 1 kg of body weight was administered.
Group V: 2 mg Methylprednisolone per 1 kg of body weight was administered.
Group VI: Normal rats (no drug was given).
Regarding the results of therapeutic effect for treating renal disease (nephrotic syndrome) of the given NANA compound per Example 1 above, it will be appreciated that the test compound sodium N-acetylneuraminate (Groups I, II and III) was dissolved in physiological saline and intraperitoneally administered, compared to intraperitoneal administration of physiological saline alone (Group IV) and subcutaneous administration of methylprednisolone (Group V).

Male ddy mice = experiment: Simplified acute toxicity test of N-acetylneuraminates in mice by intravenous injection; assay type: in vivo
Protocol: Simplified acute toxicity test:
A simplified acute toxicity test of N-acetylneuraminates in mice by intravenous injection was carried out as follows.
Lithium-, potassium-, barium- and magnesium- salts of N-acetylneuraminic acid were used (all were from MECT Corporation).
Body weights at the start of the test: 17.7-21.1 g
The number of animals at each level: 3 mice
(3) Room temperature: 23±1° C. - Humidity: 55±7%
The above-mentioned test compounds were dissolved in physiological saline solution to make a 0.2 ml solution per 20 g of body weight in a mouse as an injection fluid and injected into the tail vein. The doses were 500, 1,000 and 2,000 mg/kg.

| Compound | The number of deaths per day course (Male ddy mice; 500 mg/kg i.v., 1 hrs) | The number of deaths per day course (Male ddy mice; 500 mg/kg i.v., 3 hrs) | The number of deaths per day course (Male ddy mice; 500 mg/kg i.v., 6 hrs) | The number of deaths per day course (Male ddy mice; 500 mg/kg i.v., 24 hrs) | The number of deaths per day course (Male ddy mice; 500 mg/kg i.v., 2 days) | The number of deaths per day course (Male ddy mice; 500 mg/kg i.v., 3 days) | The number of deaths per day course (Male ddy mice; 500 mg/kg i.v., 4 days) | The number of deaths per day course (Male ddy mice; 500 mg/kg i.v., 5 days) | The number of deaths per day course (Male ddy mice; 500 mg/kg i.v., 6 days) | Final Lethality (Male ddy mice; 500 mg/kg i.v., 7 days) | The number of deaths per day course (Male ddy mice; 500 mg/kg i.v., 7 days) | Final Lethality (Male ddy mice; 1000 mg/kg i.v., 7 days) | The number of deaths per day course (Male ddy mice; 1000 mg/kg i.v., 7 days) | The number of deaths per day course (Male ddy mice; 1000 mg/kg i.v., 1 hrs) | The number of deaths per day course (Male ddy mice; 1000 mg/kg i.v., 3 hrs) | The number of deaths per day course (Male ddy mice; 1000 mg/kg i.v., 6 hrs) | The number of deaths per day course (Male ddy mice; 1000 mg/kg i.v., 24 hrs) | The number of deaths per day course (Male ddy mice; 1000 mg/kg i.v., 2 days) | The number of deaths per day course (Male ddy mice; 1000 mg/kg i.v., 3 days) | Final Lethality (Male ddy mice; 2000 mg/kg i.v., 7 days) | other results |
| --- | --- | --- | --- | --- | --- | --- | --- | --- | --- | --- | --- | --- | --- | --- | --- | --- | --- | --- | --- | --- | --- |
| CC(=O)N[C@H]1[C@H]([C@H](O)[C@H](O)CO)OC(O)(C(=O)[O-])C[C@@H]1O.[Na+] (stereo partly shown) |  |  |  |  |  |  |  |  |  |  |  |  |  |  |  |  |  |  |  |  | Kidney Moist Weight ([1]; 0.1 mg/kg i.p.): 0.47 ± 0.02 g/100 g; Weight Gain Rate ([1]; 0.1 mg/kg i.p.): 127.1 ± 2.0%; Kidney Moist Weight ([1]; 0.5 mg/kg i.p.): 0.44 ± 0.02 g/100 g; Weight Gain Rate ([1]; 0.5 mg/kg i.p.): 128.4 ± 1.8%; Kidney Moist Weight ([1]; 1.0 mg/kg i.p.): 0.42 ± 0.02 g/100 g; Weight Gain Rate ([1]; 1.0 mg/kg i.p.): 131.3 ± 1.9%; Urinary Protein Content ([1]; 3rd Day, 0.1 mg/kg i.p.): 14.1 ± 1.1 mg/24 hours; Urinary Protein Content ([1]; 3rd Day, 0.5 mg/kg i.p.): 11.3 ± 0.8 mg/24 hours; Urinary Protein Content ([1]; 3rd Day, 1.0 mg/kg i.p.): 5.1 ± 0.4 mg/24 hours; Urinary Protein Content ([1]; 6th Day, 0.1 mg/kg i.p.): 83.4 ± 8.6 mg/24 hours; Urinary Protein Content ([1]; 6th Day, 0.5 mg/kg i.p.): 49.1 ± 13.6 mg/24 hours; Urinary Protein Content ([1]; 6th Day, 1.0 mg/kg i.p.): 50.5 ± 10.7 mg/24 hours; Urinary Protein Content ([1]; 9th Day, 0.1 mg/kg i.p.): 99.6 ± 14.2 mg/24 hours; Urinary Protein Content ([1]; 9th Day, 0.5 mg/kg i.p.): 59.9 ± 14.7 mg/24 hours; Urinary Protein Content ([1]; 9th Day, 1.0 mg/kg i.p.): 51.2 ± 15.6 mg/24 hours; Urinary Protein Content ([1]; 13th Day, 0.1 mg/kg i.p.): 109.9 ± 12.9 mg/24 hours; Urinary Protein Content ([1]; 13th Day, 0.5 mg/kg i.p.): 94.5 ± 30.4 mg/24 hours; Urinary Protein Content ([1]; 13th Day, 1.0 mg/kg i.p.): 77.9 ± 17.9 mg/24 hours; Systemic side effect (in words) ([1]; PAN rats, weight gain as index of systemic effect): does not show such side effect; Effect on renal disease, nephrosis or nephrotic syndrome (in words) ([1]; PAN-induced nephritis): has a therapeutic effect on renal disease |
| CC(=O)N[C@H]1[C@H]([C@H](O)[C@H](O)CO)OC(O)(C(=O)O)C[C@@H]1O (stereo partly shown) [Barium N-acetylneuraminate] | 3 | 0 | 0 | 0 | 0 | 0 | 0 | 0 | 0 | 3/3 | 0 | 3/3 | 0 | 3 | 0 | 0 | 0 | 0 | 0 | 3/3 | Deaths (in words) (Male ddy mice; 500 mg/kg i.v.): all 3 of the 3 mice; The number of deaths per day course (Male ddy mice; 1000 mg/kg i.v., 4 days): 0; The number of deaths per day course (Male ddy mice; 1000 mg/kg i.v., 5 days): 0; The number of deaths per day course (Male ddy mice; 1000 mg/kg i.v., 6 days): 0; The number of deaths per day course (Male ddy mice; 2000 mg/kg i.v., 7 days): 0; The number of deaths per day course (Male ddy mice; 2000 mg/kg i.v., 1 hrs): 3; The number of deaths per day course (Male ddy mice; 2000 mg/kg i.v., 3 hrs): 0; The number of deaths per day course (Male ddy mice; 2000 mg/kg i.v., 6 hrs): 0; The number of deaths per day course (Male ddy mice; 2000 mg/kg i.v., 24 hrs): 0; The number of deaths per day course (Male ddy mice; 2000 mg/kg i.v., 2 days): 0; The number of deaths per day course (Male ddy mice; 2000 mg/kg i.v., 3 days): 0; The number of deaths per day course (Male ddy mice; 2000 mg/kg i.v., 4 days): 0; The number of deaths per day course (Male ddy mice; 2000 mg/kg i.v., 5 days): 0; The number of deaths per day course (Male ddy mice; 2000 mg/kg i.v., 6 days): 0; Deaths (in words) (Male ddy mice; 1,000 and 2,000 mg/kg i.v.): all of the 3 mice died |
| CC(=O)N[C@H]1[C@H]([C@H](O)[C@H](O)CO)OC(O)(C(=O)[O-])C[C@@H]1O.[Li+] (stereo partly shown) [Lithium N-acetylneuraminate] | 0 | 0 | 0 | 0 | 0 | 0 | 0 | 0 | 0 | 0/3 | 0 | 0/3 | 0 | 0 | 0 | 0 | 0 | 0 | 0 | 0/3 | The number of deaths per day course (Male ddy mice; 1000 mg/kg i.v., 4 days): 0; The number of deaths per day course (Male ddy mice; 1000 mg/kg i.v., 5 days): 0; The number of deaths per day course (Male ddy mice; 1000 mg/kg i.v., 6 days): 0; The number of deaths per day course (Male ddy mice; 2000 mg/kg i.v., 7 days): 0; The number of deaths per day course (Male ddy mice; 2000 mg/kg i.v., 1 hrs): 0; The number of deaths per day course (Male ddy mice; 2000 mg/kg i.v., 3 hrs): 0; The number of deaths per day course (Male ddy mice; 2000 mg/kg i.v., 6 hrs): 0; The number of deaths per day course (Male ddy mice; 2000 mg/kg i.v., 24 hrs): 0; The number of deaths per day course (Male ddy mice; 2000 mg/kg i.v., 2 days): 0; The number of deaths per day course (Male ddy mice; 2000 mg/kg i.v., 3 days): 0; The number of deaths per day course (Male ddy mice; 2000 mg/kg i.v., 4 days): 0; The number of deaths per day course (Male ddy mice; 2000 mg/kg i.v., 5 days): 0; The number of deaths per day course (Male ddy mice; 2000 mg/kg i.v., 6 days): 0 |
| CC(=O)N[C@H]1[C@H]([C@H](O)[C@H](O)CO)OC(O)(C(=O)O)C[C@@H]1O (stereo partly shown) [Magnesium N-acetylneuraminate] | 0 | 0 | 0 | 0 | 0 | 0 | 0 | 0 | 0 | 0/3 | 0 | 3/3 |  |  |  |  |  |  |  | 3/3 | Deaths (in words) (Male ddy mice; 1,000 and 2,000 mg/kg i.v.): all of the 3 mice died |
| CC(=O)N[C@H]1[C@H]([C@H](O)[C@H](O)CO)OC(O)(C(=O)[O-])C[C@@H]1O.[K+] (stereo partly shown) [Potassium N-acetylneuraminate] | 0 | 0 | 0 | 0 | 0 | 0 | 0 | 0 | 0 | 0/3 | 0 | 3/3 | 0 | 3 | 0 | 0 | 0 | 0 | 0 | 3/3 | The number of deaths per day course (Male ddy mice; 1000 mg/kg i.v., 4 days): 0; The number of deaths per day course (Male ddy mice; 1000 mg/kg i.v., 5 days): 0; The number of deaths per day course (Male ddy mice; 1000 mg/kg i.v., 6 days): 0; The number of deaths per day course (Male ddy mice; 2000 mg/kg i.v., 7 days): 0; The number of deaths per day course (Male ddy mice; 2000 mg/kg i.v., 1 hrs): 3; The number of deaths per day course (Male ddy mice; 2000 mg/kg i.v., 3 hrs): 0; The number of deaths per day course (Male ddy mice; 2000 mg/kg i.v., 6 hrs): 0; The number of deaths per day course (Male ddy mice; 2000 mg/kg i.v., 24 hrs): 0; The number of deaths per day course (Male ddy mice; 2000 mg/kg i.v., 2 days): 0; The number of deaths per day course (Male ddy mice; 2000 mg/kg i.v., 3 days): 0; The number of deaths per day course (Male ddy mice; 2000 mg/kg i.v., 4 days): 0; The number of deaths per day course (Male ddy mice; 2000 mg/kg i.v., 5 days): 0; The number of deaths per day course (Male ddy mice; 2000 mg/kg i.v., 6 days): 0; Deaths (in words) (Male ddy mice; 1,000 and 2,000 mg/kg i.v.): all of the 3 mice died |
